Experimental data as given in patent publication US11505533B2, “Metabolically stable N-acylaminooxadiazoles useful as antibacterial agents” (MICROBIOTIX, INC., priority 2017, dated 2022).
In brackets after ≈: the same amount, converted by molar mass.

Assays:
E. coli TolC(−) [1] = assay: TolC(−) MIC (NB); type: cell-based; settings: Escherichia coli, read-out: TolC(−) MIC (μM)(NB)
E. coli TolC(−) [2] = settings: MIC in the presence of 10% fetal calf serum versus without
Mouse serum stability = settings: 5 μM, 37° C., 4 h
[3] = Aqueous solubility, nephelometry; settings: water, kinetic from dmso stock
N. gonorrhoeae 49226 = type: cell-based; settings: Neisseria gonorrhoeae; N. gonorrhoeae 49226; read-out: MIC
[4] = test system: E. coli (700, TolC+) efflux pos; type: cell-based; settings: Escherichia coli; E. coli (700, TolC+) efflux pos; read-out: MIC
[5] = test system: S. aureus ATCC 25923 (MSSA. osteomyelitis isolate); type: cell-based; settings: Staphylococcus aureus; S. aureus ATCC 25923 (MSSA); read-out: MIC
MRSA-1094 (MDR) = type: cell-based; settings: Staphylococcus aureus; MRSA-1094 (MDR); read-out: MIC
[6] = Mammalian cell cytotoxicity
[7] = Microsomal stability + NADPH; settings: mouse liver microsomes, 0.5 hr at 37° C.
Caco-2 permeability = type: in vitro ADME; settings: human, direction not given
Text: Res., 15(5): 726-733 (1998).

[8] = Mouse serum binding, equilibrium dialysis

With O=C(Nc1nnc(-c2ccc(F)cc2)o1)N1CC(C(F)(F)F)C(C(F)(F)F)C1 (stereo not shown) [compound 4839] the MIC (E. coli TolC(−) [1]) was 3.13 µM (≈ 1.29 µg/mL), the “Fold Serum Shift vs. TolC(−)” value (E. coli TolC(−) [2]) was 12.5 fold and the “Serum Stability (% remain)” value (Mouse serum stability) was >95%. It also gave a solubility [3] of 6.25 µM (≈ 2.58 µg/mL).

For CC1=C(Br)CN(C(=O)Nc2nnc(-c3ccc(F)cc3)o2)CC1 [compound 4923], the MIC (E. coli TolC(−) [1]) was 0.78 µM (≈ 0.297 µg/mL), the “Fold Serum Shift vs. TolC(−)” value (E. coli TolC(−) [2]) was 18 fold and the “Serum Stability (% remain)” value (Mouse serum stability) was >95%.

With O=C(Nc1nnc(-c2ccc(F)cc2)o1)N1CCc2ccc(F)cc2C1 [compound 4332] the MIC (N. gonorrhoeae 49226) was 0.089 µg/mL (≈ 0.25 µM), the MIC (E. coli TolC(−) [1]) was 3.12 µM (≈ 1.11 µg/mL) and the MIC [4] was > 35 µg/mL. It also gave an MIC [5] of 7.07 µg/mL (≈ 19.8 µM), an MIC (MRSA-1094 (MDR)) of 5 µg/mL (≈ 14 µM) and a CC50 [6] of 14.4 µM. The “Microsomal Stability + NADPH % degraded” value [7] was <30% and the solubility [3] was 3.13 µM (≈ 1.12 µg/mL).

In the case of O=C(Nc1nnc(-c2ccc(F)cc2)o1)N1CCC(C(F)(F)F)CC1 [compound 4840], the MIC (E. coli TolC(−) [1]) is reported as 6.25 µM (≈ 2.24 µg/mL) and the “Fold Serum Shift vs. TolC(−)” value (E. coli TolC(−) [2]) is reported as 4 fold.

With O=C(Nc1nnc(C2CCCCC2)o1)N1CCC(Cl)=C(Cl)C1 [compound 4808] the MIC (E. coli TolC(−) [1]) was 6.25 µM (≈ 2.16 µg/mL), the Papp (Caco-2 permeability) was 24.5 ×10⁻⁶ cm/s and the “Serum Stability (% remain)” value (Mouse serum stability) was >95%.

With Cc1cccc(-c2nnc(NC(=O)c3ccc(Oc4ccccc4)nc3)o2)c1 [compound 4499] the MIC (E. coli TolC(−) [1]) was 1.56 µM (≈ 0.581 µg/mL), the “Fold Serum Shift vs. TolC(−)” value (E. coli TolC(−) [2]) was 20 fold and the fraction unbound [8] was < 0.01. The CC50 [6] was > 100 µM, the “Microsomal Stability + NADPH % degraded” value [7] was 19% and the solubility [3] was 25 µM (≈ 9.31 µg/mL).

For O=C(Nc1nnc(C2CCCC2)o1)c1ccc(Oc2ccccc2)nc1 [compound 4470], the MIC (E. coli TolC(−) [1]) was 7.02 µM (≈ 2.46 µg/mL), the “Fold Serum Shift vs. TolC(−)” value (E. coli TolC(−) [2]) was 7.1 fold and the fraction unbound [8] was 0.022. For the same compound, the CC50 [6] was > 100 µM, the “Microsomal Stability + NADPH % degraded” value [7] was 2% and the solubility [3] was 100 µM (≈ 35 µg/mL).

In the case of Cc1cc(C)cc(Oc2ccc(C(=O)Nc3nnc(-c4ccc(F)cc4)o3)cc2)c1 [compound 4308], the MIC (E. coli TolC(−) [1]) is reported as 1.56 µM (≈ 0.63 µg/mL), the CC50 [6] is reported as 32 µM and the “Microsomal Stability + NADPH % degraded” value [7] is reported as <30%. For the same compound, the solubility [3] was 3.13 µM (≈ 1.26 µg/mL).

In the case of O=C(Nc1nnc(-c2ccc(F)cc2)o1)N1CCC2(CCC2)CC1 [compound 4842], the MIC (E. coli TolC(−) [1]) is reported as 6.25 µM (≈ 2.06 µg/mL), the “Fold Serum Shift vs. TolC(−)” value (E. coli TolC(−) [2]) is reported as 4 fold and the “Serum Stability (% remain)” value (Mouse serum stability) is reported as 77%.

In the case of COc1cccc(Oc2ccc(C(=O)Nc3nnc(-c4ccc(F)cc4)o3)cc2)c1 [compound 4309], the MIC (E. coli TolC(−) [1]) is reported as 0.984 µM (≈ 0.399 µg/mL), the CC50 [6] is reported as > 100 µM and the “Microsomal Stability + NADPH % degraded” value [7] is reported as <30%. The solubility [3] was 6.25 µM (≈ 2.53 µg/mL).

In the case of O=C(Nc1nnc(-c2ccc(F)cc2)o1)N1CCc2cc(F)ccc2C1 [compound 4331], the MIC (N. gonorrhoeae 49226) is reported as 0.089 µg/mL (≈ 0.25 µM), the MIC (E. coli TolC(−) [1]) is reported as 3.12 µM (≈ 1.11 µg/mL) and the MIC [4] is reported as > 35 µg/mL. The MIC [5] was 4.45 µg/mL (≈ 12.5 µM), the MIC (MRSA-1094 (MDR)) was 3.15 µg/mL (≈ 8.84 µM) and the CC50 [6] was 34 µM. For the same compound, the “Microsomal Stability + NADPH % degraded” value [7] was <30% and the solubility [3] was 12.5 µM (≈ 4.45 µg/mL).

For CC(C)(C)C1=CCN(C(=O)Nc2nnc(-c3ccc(F)cc3)o2)CC1 [compound 4841], the MIC (E. coli TolC(−) [1]) was 6.25 µM (≈ 2.15 µg/mL) and the “Fold Serum Shift vs. TolC(−)” value (E. coli TolC(−) [2]) was 8 fold.

For COc1ccc(Oc2ccc(C(=O)Nc3nnc(-c4ccc(F)cc4)o3)cc2)cc1 [compound 4310], the MIC (E. coli TolC(−) [1]) was 0.781 µM (≈ 0.317 µg/mL), the CC50 [6] was > 100 µM and the “Microsomal Stability + NADPH % degraded” value [7] was <30%. It also gave a solubility [3] of 6.25 µM (≈ 2.53 µg/mL).

In the case of O=C(Nc1nnc(C2CCCCC2)o1)c1ccc(Oc2ccccc2)nc1 [compound 4780], the MIC (E. coli TolC(−) [1]) is reported as 1.24 µM (≈ 0.452 µg/mL) and the fraction unbound [8] is reported as 0.005.

With O=C(Nc1nnc(C2CCCCC2)o1)c1ccc(Oc2cccc(O)c2)cc1 [compound 4801] the MIC (E. coli TolC(−) [1]) was 3.13 µM (≈ 1.19 µg/mL), the “Fold Serum Shift vs. TolC(−)” value (E. coli TolC(−) [2]) was 16 fold and the Papp (Caco-2 permeability) was 13.2 ×10⁻⁶ cm/s. For the same compound, the “Serum Stability (% remain)” value (Mouse serum stability) was >95% and the solubility [3] was 12.5 µM (≈ 4.74 µg/mL).

For Cc1ccc(Oc2ccc(C(=O)Nc3nnc(-c4ccc(F)cc4)o3)cc2)cc1 [compound 4305], the MIC (E. coli TolC(−) [1]) was 0.781 µM (≈ 0.304 µg/mL), the CC50 [6] was 32 µM and the “Microsomal Stability + NADPH % degraded” value [7] was <30%. It also gave a solubility [3] of 3.13 µM (≈ 1.22 µg/mL).

With O=C(Nc1nnc(-c2ccc(F)cc2)o1)N1CCC(Cl)=C(Cl)C1 [compound 4737] the MIC (E. coli TolC(−) [1]) was 0.78 µM (≈ 0.279 µg/mL), the “Fold Serum Shift vs. TolC(−)” value (E. coli TolC(−) [2]) was 32 fold and the fraction unbound [8] was < 0.01. The CC50 [6] was > 100 µM, the “Serum Stability (% remain)” value (Mouse serum stability) was >95% and the “Microsomal Stability + NADPH % degraded” value [7] was 21%. The solubility [3] was 6.3 µM (≈ 2.25 µg/mL).

In the case of C=CCN(C)C(=O)Nc1nnc(-c2ccc(F)cc2)o1 [compound 4345], the MIC (E. coli TolC(−) [1]) is reported as 25 µM (≈ 6.91 µg/mL), the MIC [4] is reported as > 27 µg/mL and the MIC [5] is reported as 27.6 µg/mL (≈ 99.9 µM). It also gave an MIC (MRSA-1094 (MDR)) of 19.5 µg/mL (≈ 70.7 µM).
